Assay results: US5605929A, “Methods and compositions for inhibiting 5α-reductase activity” (priority 1995, dated 1997)
Like-named read-outs stand apart in the source and are kept apart here.

What was measured:
[1] = test system: hamster flank organ; details: for Pigmented macule, right flank organ / Pigmented macule, left flank organ (vehicle): 15 days; for Pigmented macule, right flank organ: vehicle 23.5 ± 3.8
Description: Animals were divided into 10/group. The right flank organ was treated daily with 5 μl solution containing vehicle (ethanol) alone or γ-LA (0.5, 1, and 2 mg) for 15-25 days. The left flank organ of all animals received the same volume of vehicle.
The lengths of the long axis and the short axis of the pigmented spot (pigmented macule) were measured using a caliper with digital display (Digimatic, Mitutoyo Corp., Japan). […] The data are presented as mean ± standard deviation.

[2] = test system: ventral prostate and preputial organ
Excerpt: Male Sprague-Dawley rats, 60±5 g body weight, were used. Each group had 6 rats, and all were castrated.

[3] = biological target: T1, human 5α-reductase isozyme type 1 (Homo sapiens, UniProt P18405); experiment: 4-[14C]testosterone reduction, human type 1 isozyme; type: biochemical; details: read-out: % Inhibition of 5α-reduction
T1 construct: expressed in transfected cells; host or cells: Rat-1A cells infected with pMV7 retrovirus; microsomes of these cells
T1 sequence (P18405 1-259): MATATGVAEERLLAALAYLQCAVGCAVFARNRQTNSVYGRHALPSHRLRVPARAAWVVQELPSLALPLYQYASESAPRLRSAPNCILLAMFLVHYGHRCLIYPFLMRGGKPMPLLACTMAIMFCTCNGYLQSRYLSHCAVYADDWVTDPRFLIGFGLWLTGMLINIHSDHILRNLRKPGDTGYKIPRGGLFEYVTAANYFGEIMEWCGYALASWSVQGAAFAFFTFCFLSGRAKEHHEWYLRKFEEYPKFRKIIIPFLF
Excerpt: (§1) The cDNAs for the human type 1 and 2 5α-reductases were isolated from human prostate λZAP II™ cDNA libraries using the published sequence of the 5α-reductases, PCR™ and standard library screening techniques (Sambrook et al., 1989). The type 1 and 2 cDNAs correspond to nucleotides 31-870 and 28-829, respectively, of the published sequences for these 5α-reductases (Anderson and Russell, 1990; Anderson et al., 1991). The type 1 and 2 cDNAs were subcloned into the retroviral expression vector pMV7 (Kirschmeier et al., 1988) and high titer stocks of virus containing the type 1 and 2 cDNAs were generated using the packaging cells BOSC 23 293 (Kirschmeier et al., 1988). Rat.-1A cells (Pear et al., 1993) were infected with virus (Topp, 1981) and cells containing integrated retrovirus were selected for G418-SO4 resistance, (Brown and Scott, 1987).
(§2) Microsomes were prepared as described previously (Liang and Liao, 1992) from the liver of adult Sprague-Dawley female rats or Rat-1A cells expressing a specific type of human 5α-reductase. […] The data presented was based on the rate of reaction.
(§3) The reaction was started by the addition of 25 μl of microsomes (25 μg protein). The mixture was incubated at 37° for 30-60 min and stopped by addition of 0.5 ml of ethyl acetate and mixing for 1 min. The organic solvent extract was removed under vacuum.

[4] = test system: 5α-reductase in liver and prostate; details: cited from earlier work
[5] = test system: human prostate cancer (PC3 and LNCaP) cells; experiment: 5α-reduction of testosterone by human prostate cancer cells; type: cell-based
[6] = test system: NADH:menadione reductase; details: 10 to 40 μM
[7] = biological target: T2, human 5α-reductase isozyme type 2 (Homo sapiens, UniProt P31213); experiment: [3H]4-MA binding, human type 2 isozyme expressed in Rat-1A cells; details: read-out: % Inhibition of [^3 H]4-MA binding
T2 construct: expressed in transfected cells; host or cells: Rat-1A cells infected with pMV7 retrovirus; microsomes of these cells
T2 sequence (P31213 1-254): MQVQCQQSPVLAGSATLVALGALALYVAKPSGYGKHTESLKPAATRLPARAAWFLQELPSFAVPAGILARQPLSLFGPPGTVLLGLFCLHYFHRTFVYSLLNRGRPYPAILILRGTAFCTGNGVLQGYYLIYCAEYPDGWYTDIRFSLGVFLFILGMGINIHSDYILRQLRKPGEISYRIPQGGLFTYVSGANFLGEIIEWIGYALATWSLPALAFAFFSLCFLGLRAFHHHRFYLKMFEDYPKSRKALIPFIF
Excerpt: as §1, §2
(§4) [^3 H]4-MA binding assay were described in detail previously (Liang and Liao, 1992; Liang et al., 1983). […] The reaction was started by the addition of 25 μl of microsomes (25 μg protein). After 30-60 min incubation at 0° C., the [^3 H]4-MA bound to microsomes was collected on a Whatman GF/F glass fiber, washed and radioactivity determined (Liang and Liao, 1992).

[8] = biological target: T1, human 5α-reductase isozyme type 1; experiment: [3H]4-MA binding, human type 1 isozyme expressed in Rat-1A cells; details: read-out: % Inhibition of [^3 H]4-MA binding
Excerpt: as §1, §2, §4

[9] = biological target: T2, human 5α-reductase isozyme type 2; experiment: 4-[14C]testosterone reduction, human type 2 isozyme; type: biochemical; details: for inhibition at 1 µM / inhibition at 3 µM / inhibition at 10 µM / inhibition at 30 µM / inhibition at 100 µM: read-out: % Inhibition of 5α-reduction
Excerpt: as §1, §2, §3

[10] = biological target: T3, rat small intestinal sucrase (Rattus norvegicus, UniProt P23739); details: cited from earlier work
T3 construct: rat small intestinal sucrase and maltase; host or cells: rat small intestine
T3 sequence (P23739 1014-1841 limits assumed): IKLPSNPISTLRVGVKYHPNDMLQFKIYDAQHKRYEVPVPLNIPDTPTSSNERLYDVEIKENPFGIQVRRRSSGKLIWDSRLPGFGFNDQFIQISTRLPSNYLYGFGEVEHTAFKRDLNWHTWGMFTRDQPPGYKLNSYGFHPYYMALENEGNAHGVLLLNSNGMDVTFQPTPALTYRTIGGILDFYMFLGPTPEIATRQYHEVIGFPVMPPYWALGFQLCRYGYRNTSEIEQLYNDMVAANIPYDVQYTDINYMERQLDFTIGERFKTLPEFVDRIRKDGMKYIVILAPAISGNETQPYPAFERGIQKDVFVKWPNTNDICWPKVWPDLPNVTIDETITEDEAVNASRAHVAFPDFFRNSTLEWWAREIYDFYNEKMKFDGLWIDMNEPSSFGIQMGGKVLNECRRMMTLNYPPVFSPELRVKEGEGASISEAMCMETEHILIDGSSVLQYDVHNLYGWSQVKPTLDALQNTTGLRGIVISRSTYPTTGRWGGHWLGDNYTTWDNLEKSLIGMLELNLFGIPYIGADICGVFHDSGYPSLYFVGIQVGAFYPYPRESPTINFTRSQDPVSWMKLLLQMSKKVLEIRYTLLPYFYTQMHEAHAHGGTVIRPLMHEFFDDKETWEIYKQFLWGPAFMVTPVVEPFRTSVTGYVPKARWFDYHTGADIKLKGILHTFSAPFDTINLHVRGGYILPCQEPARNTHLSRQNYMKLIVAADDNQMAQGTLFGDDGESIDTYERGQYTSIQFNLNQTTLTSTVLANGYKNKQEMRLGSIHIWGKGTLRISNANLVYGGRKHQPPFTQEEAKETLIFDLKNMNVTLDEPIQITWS
T3 sequence (P23739 2-1013 partner limits assumed): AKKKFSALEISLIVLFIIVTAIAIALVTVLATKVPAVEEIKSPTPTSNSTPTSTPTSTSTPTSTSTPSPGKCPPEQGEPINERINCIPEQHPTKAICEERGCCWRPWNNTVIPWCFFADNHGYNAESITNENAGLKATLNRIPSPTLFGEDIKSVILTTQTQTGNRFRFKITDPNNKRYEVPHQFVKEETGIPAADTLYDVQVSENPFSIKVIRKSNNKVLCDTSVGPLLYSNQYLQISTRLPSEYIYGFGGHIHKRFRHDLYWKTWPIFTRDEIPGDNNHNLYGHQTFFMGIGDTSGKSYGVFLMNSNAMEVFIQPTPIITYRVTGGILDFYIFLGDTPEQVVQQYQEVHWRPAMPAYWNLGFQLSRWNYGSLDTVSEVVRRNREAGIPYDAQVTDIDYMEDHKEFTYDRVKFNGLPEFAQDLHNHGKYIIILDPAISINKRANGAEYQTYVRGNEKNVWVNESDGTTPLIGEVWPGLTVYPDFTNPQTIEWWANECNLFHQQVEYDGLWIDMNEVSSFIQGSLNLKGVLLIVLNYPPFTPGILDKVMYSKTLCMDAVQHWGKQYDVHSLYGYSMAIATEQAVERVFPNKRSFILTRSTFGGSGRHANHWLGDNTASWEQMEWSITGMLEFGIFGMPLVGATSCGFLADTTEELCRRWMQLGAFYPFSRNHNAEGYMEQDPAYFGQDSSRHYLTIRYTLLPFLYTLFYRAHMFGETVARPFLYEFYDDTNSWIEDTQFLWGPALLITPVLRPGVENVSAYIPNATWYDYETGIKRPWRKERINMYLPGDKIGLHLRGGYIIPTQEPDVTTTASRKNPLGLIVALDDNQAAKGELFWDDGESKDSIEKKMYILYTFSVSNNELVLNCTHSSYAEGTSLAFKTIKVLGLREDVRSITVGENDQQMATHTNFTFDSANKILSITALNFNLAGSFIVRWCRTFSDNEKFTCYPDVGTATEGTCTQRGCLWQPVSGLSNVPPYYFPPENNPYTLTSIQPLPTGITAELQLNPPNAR

[11] = test system: androgen-dependent organs; type: in vivo, rat
Description: The control rats were injected with 0.3 ml of 30% ethanol.

[12] = test system: human breast tumor cell line, MDF-7; experiment: Human breast tumor growth in nude mice; type: in vivo; details: 1 mg/mouse/day, 2 weeks
Description: For breast tumor studies, human breast tumor cell line, MDF-7 (1 million cells) was injected into female nude mice. After 5 weeks, the tumor was over 1000 mm^3.

Q: For `CCCCC/C=C\C/C=C\C/C=C\CCCCC(=O)O` [γ-Linolenic acid, γ-linolenic acid], which “growth rate of pigmented macules” value ([1]; FIG. 32, 1 and 2 mg) is on record?
A: Its value is “dramatically reduced”.

Q: And the “change of pigmented macule (#)” value ([1]; Table 7, 0.5 mg)?
A: The value was -34%.

Q: And the “change of pigmented macule (*)” value ([1]; Table 7, 0.5 mg)?
A: The value was -19%.

Q: And the “Pigmented macule, right flank organ” value ([1]; Table 7, 0.5 mg/day)?
A: The value was 19.0 ± 3.6 mm^2.

Q: What about the “change of pigmented macule (#)” value ([1]; Table 7, 1.0 mg) of the same compound?
A: The value was -63%.

Q: And the “change of pigmented macule (*)” value ([1]; Table 7, 1.0 mg)?
A: Its value is -54%.

Q: What about the “Pigmented macule, right flank organ” value ([1]; Table 7, 1.0 mg/day) of the same compound?
A: Its value is 10.8 ± 2.7 mm^2.

Q: What about the “Pigmented macule, left flank organ (vehicle)” value ([1]; Table 7, group 2, right treated with 0.5 mg) of the same compound?
A: The value was 28.6 ± 4.0 mm^2.

Q: And the “Pigmented macule, left flank organ (vehicle)” value ([1]; Table 7, group 3, right treated with 1.0 mg)?
A: Its value is 29.2 ± 4.8 mm^2.

Q: What about the “effect on contralateral pigmented macules” value ([1]; hamster, in vivo) of the same compound?
A: Its value is “not affected”.

Q: What about the “effect on body weight increase” value ([2]; 5 mg ip daily, 14 days) of the same compound?
A: Its value is “not EC or γ-LA”.

Q: And the “reduction of weights of ventral prostate and preputial organ” value ([2]; 5 mg ip daily, 14 days)?
A: The value was 10 to 35%.

Q: What about the “general health / organ appearance” value ([2]; rat, in vivo) of the same compound?
A: The value was “appeared to be as healthy as rats in other groups”.

Q: What about the inhibition at 1 µM [3] of the same compound?
A: The inhibition at 1 µM was 31%.

Q: And the inhibition at 3 µM [3]?
A: The inhibition at 3 µM was 52%.

Q: What about the inhibition at 10 µM [3] of the same compound?
A: The inhibition at 10 µM was 89%.

Q: And the inhibition at 30 µM [3]?
A: Its inhibition at 30 µM is 99%.

Q: What about the “inhibition of 5α-reductase activity in liver and prostate” value [4] of the same compound?
A: Its value is “inhibit 5α-reductase activity in both the liver and prostate”.

Q: And the “5α-DHT production by human prostate cancer cells” value [5]?
A: The value was “can inhibit the conversion of testosterone to 5α-DHT”.

Q: And the IC50 ([5]; Homo sapiens, LNCaP, read-out: IC50 with the prostate cancer cells)?
A: Its IC50 is 10 ± 5 µM.

Q: What about the “effect on NADH:menadione reductase” value [6] of the same compound?
A: Its value is “did not affect”.

Q: What about the inhibition at 1 µM [7] of the same compound?
A: Its inhibition at 1 µM is 22%.

Q: What about the inhibition at 3 µM [7] of the same compound?
A: Its inhibition at 3 µM is 49%.

Q: What about the inhibition at 10 µM [7] of the same compound?
A: Its inhibition at 10 µM is 63%.

Q: What about the inhibition at 30 µM [7] of the same compound?
A: The inhibition at 30 µM was 72%.

Q: And the inhibition at 100 µM [7]?
A: The inhibition at 100 µM was 88%.

Q: And the inhibition at 1 µM [8]?
A: Its inhibition at 1 µM is 20%.

Q: And the inhibition at 3 µM [8]?
A: Its inhibition at 3 µM is 54%.

Q: What about the inhibition at 10 µM [8] of the same compound?
A: Its inhibition at 10 µM is 65%.

Q: What about the inhibition at 30 µM [8] of the same compound?
A: Its inhibition at 30 µM is 79%.

Q: What about the inhibition at 100 µM [8] of the same compound?
A: The inhibition at 100 µM was 85%.

Q: What about the inhibition at 1 µM [9] of the same compound?
A: The inhibition at 1 µM was 30%.

Q: And the inhibition at 3 µM [9]?
A: Its inhibition at 3 µM is 48%.

Q: What about the inhibition at 10 µM [9] of the same compound?
A: The inhibition at 10 µM was 60%.

Q: What about the inhibition at 30 µM [9] of the same compound?
A: The inhibition at 30 µM was 88%.

Q: What about the inhibition at 100 µM [9] of the same compound?
A: Its inhibition at 100 µM is 99%.

Q: What does the source list for `O=C(O[C@@H]1Cc2c(O)cc(O)cc2O[C@@H]1c1cc(O)c(O)c(O)c1)c1cc(O)c(O)c(O)c1` [EGCG, (-)Epigallocatechin-3-gallate]?
A: IC50 [10]: 50 to 500 µM; body weight reduction ([11]; 10 mg per day): about 10%; coagulating glands weight reduction ([11]; 10 mg per day): about 30%; dorsolateral prostate weight reduction ([11]; 10 mg per day): about 30%; effect on weights of testis and kidney ([11]; 10 mg per day): not significant; preputial glands weight loss ([11]; 10 mg per day): 20 to 25%; seminal vesicles weight loss ([11]; 10 mg per day): 20 to 25%; ventral prostate weight reduction ([11]; 10 mg per day): about 30%; body weight loss ([11]; 10 mg per day, discussion): less than 10%; prostate weight loss ([11]; 10 mg per day, discussion): more than 30%; body weight reduction ([11]; 15 mg per day): about 25%; effect on weights of testis and kidney ([11]; 15 mg per day): ≤ 10%; weight reduction for all of these organs ([11]; 15 mg per day, prostates, coagulating glands, seminal vesicles, preputial glands): ≥ 60%; reversibility of body weight effect ([11]; application stopped, FIG. 38): reversible; organ weights ([11]; male rats, ventral and dorsolateral prostates, coagulating glands, seminal vesicles, preputial glands): without affecting the weight of testis or kidney; reduction of body weight increase ([2]; 5 mg ip daily, 14 days): about 35%; reduction of weights of ventral prostate and preputial organ ([2]; 5 mg ip daily, 14 days): 10 to 35%; fat content under the skin ([2]; rat, in vivo): appeared less; general health / organ appearance ([2]; rat, in vivo): appeared to be as healthy as rats in other groups; inhibition at 1 µM [3]: 22%; inhibition at 3 µM [3]: 23%; inhibition at 10 µM [3]: 34%; inhibition at 30 µM [3]: 89%; inhibition at 100 µM [3]: 98%; tumor reduction [12]: 50%; 5α-DHT production by human prostate cancer cells [5]: reduced 5α-DHT production; inhibition at 1 µM [7]: < 10%; inhibition at 3 µM [7]: 12%; inhibition at 10 µM [7]: 55%; inhibition at 30 µM [7]: 72%; inhibition at 100 µM [7]: 89%; inhibition at 1 µM [8]: 29%; inhibition at 3 µM [8]: 47%; inhibition at 10 µM [8]: 77%; inhibition at 30 µM [8]: 88%; inhibition at 100 µM [8]: 86%; activity on type 2 isozyme ([9]; enzymatic assay, concentrations below 30 μM for ECG/EGCG): did not inhibit the Type 2 isozyme; inhibition at 1 µM [9]: < 10%; inhibition at 3 µM [9]: < 10%; inhibition at 10 µM [9]: < 10%; inhibition at 30 µM [9]: < 10%; inhibition at 100 µM [9]: 73%
